According to patent US20250296936A1, “SARS-COV2 MAIN PROTEASE INHIBITORS” (Gilead Sciences, Inc., priority 2024, published 2025):
Like-named read-outs stand apart in the source and are kept apart here.

Tested on: SARS-CoV-2-NLuc in A549-hACE2 cells
Test: microbe, parasite or virus in culture
Format: cell-based, SARS Coronavirus 2
[1] = Severe acute respiratory syndrome coronavirus, 48 h, read-out: MPro EC50 (nM)
[2] = Severe acute respiratory syndrome coronavirus, 48 h, read-out: MPro EC50

SMILES | EC50 [1] [nM] | other results
N#CCCn1c(=O)n(-c2cncc3ccccc23)c(=O)c2oc(-c3ccccc3Cl)cc21 [Example 19] | 13 | –
COc1ccc2cncc(-n3c(=O)c4oc(-c5ccccc5Cl)cc4n(C)c3=O)c2c1 [Example 32] | 381 | –
Cn1ncc2cncc(-n3c(=O)c4oc(-c5ccc(F)cc5Cl)cc4n(CCC#N)c3=O)c21 [Example 24] | 71.4 | –
Cn1ncc2cncc(-n3c(=O)c4oc(-c5ccccc5Cl)cc4n(C)c3=O)c21 [Example 29] | 1170 | –
COc1cc(-c2cc3c(o2)c(=O)n(-c2cncc4ccccc24)c(=O)n3CC#N)c(Cl)cc1F [Example 37, 2-(6-(2-chloro-4-fluoro-5-methoxyphenyl)-3-(isoquinolin-4-yl)-2,4-dioxo-3,4-dihydrofuro[3,2-d]pyrimidin-1(2H)-yl)acetonitrile] | – | EC50 [2]: 15.8 nM
Cc1cncc(-n2c(=O)[nH]c3cc(-c4ccccc4Cl)oc3c2=O)c1 [Example 8] | 137 | –
Cn1c(=O)n(-c2cncc3ccccc23)c(=O)c2cc(-c3ccccc3Cl)oc21 [Example 33] | 145 | –
COc1cc(-c2cc3[nH]c(=O)n(-c4cnnc(C)c4)c(=O)c3o2)c(Cl)cc1F [Example 12] | > 10000 | –
COc1ccc2cncc(-n3c(=O)[nH]c4cc(-c5ccccc5Cl)oc4c3=O)c2c1 [Example 10] | 95.6 | –
N#CC1(Cn2c(=O)n(-c3cncc4ccccc34)c(=O)c3oc(-c4ccccc4Cl)cc32)CC1 [Example 50] | 6.99 | –
COc1cc(-c2cc3c(o2)c(=O)n(-c2cnnc(C)c2)c(=O)n3CCC#N)c(Cl)cc1F [Example 27] | 5250 | –
COc1cc(-c2cc3c(o2)c(=O)n(-c2cncc4cnn(C)c24)c(=O)n3CC#N)c(Cl)cc1F [Example 39] | 50.7 | –
COc1cc(-c2cc3[nH]c(=O)n(-c4cncc(C)c4)c(=O)c3o2)c(Cl)cc1F [Example 56] | 195 | –
COc1cc(-c2cc3c(o2)c(=O)n(-c2cncc(C)c2)c(=O)n3CCC#N)c(Cl)cc1F [Example 58] | 19.9 | –
COc1cc(-c2cc3[nH]c(=O)n(-c4cccnn4)c(=O)c3o2)c(Cl)cc1F [Example 15] | > 10000 | –
N#CCCn1c(=O)n(-c2cncc3ccc(F)cc23)c(=O)c2oc(-c3ccccc3Cl)cc21 [Example 22] | 19 | –
N#CCCn1c(=O)n(-c2cncc3c2CCCC3)c(=O)c2oc(-c3ccccc3Cl)cc21 [Example 21] | 29.6 | –
Cn1ncc2cncc(-n3c(=O)c4oc(-c5ccccc5Cl)cc4n(CCC#N)c3=O)c21 (single isomer, unassigned) [Example 61, 3-[6-(2-chlorophenyl)-3-(1-methylpyrazolo[4,3-c]pyridin-7-yl)-2,4-dioxo-furo[3,2-d]pyrimidin-1-yl]propanenitrile] | – | EC50 (read-out: MPro EC50): 7.16 nM
COc1cc(-c2cc3c(o2)c(=O)n(-c2cncc4cnn(C)c24)c(=O)n3CCC#N)c(Cl)cc1F [Example 17] | 20.7 | –
Cn1ncc2cncc(-n3c(=O)c4oc(-c5ccccc5Cl)cc4n(CCC#N)c3=O)c21 (single isomer, unassigned) [Example 62, 3-[6-(2-chlorophenyl)-3-(1-methylpyrazolo[4,3-c]pyridin-7-yl)-2,4-dioxo-furo[3,2-d]pyrimidin-1-yl]propanenitrile] | – | EC50 (read-out: MPro EC50): 233 nM
COc1ccc(Cl)c(-c2cc3[nH]c(=O)n(-c4cncc5ccccc45)c(=O)c3o2)c1 [Example 3] | 23.3 | –

SMILES | EC50 [1] [nM] | other results
O=c1[nH]c2cc(-c3ccccc3Cl)oc2c(=O)n1-c1cncc2c1CCCC2 [Example 5] | 212 | –
Cn1c(=O)n(-c2cncc3ccccc23)c(=O)c2oc(-c3ccc(F)cc3Cl)cc21 [Example 36] | 3270 | –
COc1cc(-c2cc3c(o2)c(=O)n(-c2cncc4cnn(C)c24)c(=O)n3CCC#N)c(Cl)cc1F (single isomer, unassigned) [Example 63, 3-[6-(2-chloro-4-fluoro-5-methoxy-phenyl)-3-(1-methylpyrazolo[4,3-c]pyridin-7-yl)-2,4-dioxo-furo[3,2-d]pyrimidin-1-yl]propanenitrile] | – | EC50 (read-out: MPro EC50): 6.24 nM
O=c1[nH]c2oc(-c3ccccc3Cl)cc2c(=O)n1-c1cncc2ccccc12 [Example 14] | 3330 | –
COc1ccc2cncc(-n3c(=O)c4oc(-c5ccccc5Cl)cc4n(CCC#N)c3=O)c2c1 [Example 20] | 17.1 | –
COc1cc(-c2cc3c(o2)c(=O)n(-c2cncc4ccccc24)c(=O)n3CC2(C#N)CC2)c(Cl)cc1F [Example 47, 1-((6-(2-chloro-4-fluoro-5-methoxyphenyl)-3-(isoquinolin-4-yl)-2,4-dioxo-3,4-dihydrofuro[3,2-d]pyrimidin-1(2H)-yl)methyl)cyclopropane-1-carbonitrile] | – | EC50 [2]: 29.4 nM
Cc1cncc(-n2c(=O)c3oc(-c4ccccc4Cl)cc3n(CC3(C#N)CC3)c2=O)c1 [Example 53] | 12.8 | –
COc1cc(-c2cc3c(o2)c(=O)n(-c2cncc4ccccc24)c(=O)n3CCC#N)c(Cl)cc1F [Example 16, 3-(6-(2-chloro-4-fluoro-5-methoxyphenyl)-3-(isoquinolin-4-yl)-2,4-dioxo-3,4-dihydrofuro[3,2-d]pyrimidin-1(2H1)-yl)propanenitrile] | – | EC50 [2]: 4.36 nM
N#CCn1c(=O)n(-c2cncc3ccccc23)c(=O)c2oc(-c3ccccc3Cl)cc21 [Example 40] | 20.1 | –
COc1cc(-c2cc3c(o2)c(=O)n(-c2cncc4cnn(C)c24)c(=O)n3C)c(Cl)cc1F [Example 30] | 683 | –
COc1cc(-c2cc3[nH]c(=O)n(-c4cncc5ccccc45)c(=O)c3o2)c(Cl)cc1F [Example 11, 6-(2-chloro-4-fluoro-5-methoxy-phenyl)-3-(4-isoquinolyl)-1H-furo[3,2-d]pyrimidine-2,4-dione] | – | EC50 [2]: 81.5 nM
Cc1cncc(-n2c(=O)c3oc(-c4ccccc4Cl)cc3n(C)c2=O)c1 [Example 35] | 726 | –
Cc1cncc(-n2c(=O)c3oc(-c4ccccc4Cl)cc3n(CCC#N)c2=O)c1 [Example 23] | 24.1 | –
Cc1cncc(-n2c(=O)c3oc(-c4ccccc4Cl)cc3n(CC#N)c2=O)c1 [Example 45] | 52.3 | –
N#CCn1c(=O)n(-c2cncc3ccccc23)c(=O)c2oc(-c3ccc(F)cc3Cl)cc21 [Example 46] | 58.4 | –
O=c1[nH]c2cc(-c3ccccc3Cl)oc2c(=O)n1-c1cncc2ccccc12 [Example 4, 6-(2-chlorophenyl)-3-(4-isoquinolyl)-1H-furo[3,2-d]pyrimidine-2,4-dione] | – | EC50 [2]: 273 nM
COc1cc(-c2cc3c(o2)c(=O)n(-c2cccnn2)c(=O)n3CCC#N)c(Cl)cc1F [Example 26] | 408 | –
COc1cc(-c2cc3c(o2)c(=O)n(-c2cncc4cccnc24)c(=O)n3CCC#N)c(Cl)cc1F [Example 57, 3-(6-(2-chloro-4-fluoro-5-methoxyphenyl)-3-(1,6-naphthyridin-8-yl)-2,4-dioxo-3,4-dihydrofuro[3,2-d]pyrimidin-1(2H)-yl)propanenitrile] | – | EC50 [2]: 19.7 nM
N#CCCn1c(=O)n(-c2cncc3ccccc23)c(=O)c2oc(-c3ccc(F)cc3Cl)cc21 [Example 25] | 41.7 | –
COc1cc(-c2cc3c(o2)c(=O)n(-c2cncc4cnn(C)c24)c(=O)n3CCC#N)c(Cl)cc1F (single isomer, unassigned) [Example 64, 3-[6-(2-chloro-4-fluoro-5-methoxy-phenyl)-3-(1-methylpyrazolo[4,3-c]pyridin-7-yl)-2,4-dioxo-furo[3,2-d]pyrimidin-1-yl]propanenitrile] | – | EC50 (read-out: MPro EC50): 112 nM
